Here are results for 14 compounds from US7166567B2, “Fragrance compositions” (Givaudan SA, priority 2000, dated 2007).

Holding throughout (assay type): physicochemical
Series [1] can be described thus: Retention of fragrance material components after granulation by GC/MS. To be noted: for Divided. Initial Retention: fragrance divided between core particles and outer matrix (Example 2.2); for Undivided. Initial Retention: whole fragrance in outer matrix (Example 2.1). The source says: In this example, fragrance material components are divided between core particles and outer matrix. The selection is made such that fragrance components having a loss factor of FL>10^2 Pa ppm are present in core particles whereas the components having a loss factor of FL<10^2 Pa ppm are present in the outer matrix. Such a composition is then compared with a composition wherein total fragrance material is provided in an outer matrix, the core particles being fragrance material-free. […] The retention of certain fragrance material components after the granulation process was measured by GC/MS analysis.

Series [2] in a line: Loss Factor (vapour pressure x water solubility at room temperature). The text has this: Preferred components of a fragrance material for addition to the outer matrix are substances that have a Loss Factor (FL) that is lower than 10^2 Pa ppm. The term <<Loss Factor>> refers to a parameter that is related to the losses of fragrance material during drying and is defined as the product of the pure component vapour pressure (Pa) and the water solubility (ppm) at room temperature. Vapour pressures and water solubility data for commercially available fragrance components are well known and so the Loss Factor for a given fragrance component may be easily calculated. Alternatively, vapour pressure and water solubility measurements may be easily taken using techniques well known in the art. […] The water solubility of fragrances may be measured according to techniques known in the art for the measurement of sparingly water-soluble materials. A preferred technique involves the formation of a saturated solution of a fragrance component in water. A tube with a dialysed membrane is placed in the solution such that after equilibration an idealised solution is formed within the tube. The tube may be removed and the water solution therein extracted with a suitable organic solvent to remove the fragrance component. Finally the extracted fragrance component may be concentrated and measured, for example using gas chromatography.

Series [3] in a line: Aged retention of fragrance components in powder detergent, GC/MS. To be noted: 1 month, 37° C., 70% relative humidity; for Retention With coating: composition as Example 1 with coating in detergent base; for Retention Without coating: composition as Example 1 without coating in detergent base; for Retention free perfume: free perfume in detergent base, 0.35 wt %. The method, then: Compositions were prepared substantially as set out in Example 1 wherein one composition was provided with a coating and the other not.
Compositions were incorporated into standard, unperfumed detergent bases resulting in 130.00 g perfumed powder detergent with a perfume level of 0.35 wt % based on total powder detergent. As a reference, 0.46 g of free perfume was incorporated into 129.54 g of the same standard detergent base. Both samples and reference were filled separately into carton boxes, sealed and stored in a climate chamber at 70% relative humidity and 37° C. for 1 month. All samples were compared in terms of aged fragrance material profile measured by GC/MS analysis.

Where [4] appears, read: vapour pressure (Pa) x water solubility (ppm), room temperature.

Like-named read-outs stand apart in the source and are kept apart here.

Turning to `CCCCCCCCCC=O` [Aldehyde C10], in series [1], the “Divided. Initial Retention” value is 93% and the “Undivided. Initial Retention” value was 44%. The “Loss Factor FL” value in series [2] stood at 424 Pa ppm.

Consider `CC(=O)OCc1ccccc1` [Benzyl acetate], for which, in series [3], the “Retention With coating” value is 50%, the “Retention Without coating” value was found to be 26% and the Retention free perfume amounted to 0%.

`O=C(OCc1ccccc1)c1ccccc1` [Benzyl benzoate]: in series [1], the “Divided. Initial Retention” value is on record as 88% and the “Undivided. Initial Retention” value is recorded as 99%.

`CC(=O)/C=C/C1=C(C)CCCC1(C)C` [Beta ionone]: in series [1], the “Divided. Initial Retention” value worked out at 100% and the “Undivided. Initial Retention” value was 75%. Moreover, the “Loss Factor FL” value in series [2] (setting [4]) is reported as 90 Pa ppm.

`CC(C)=CCCC(C)CCO` (centres unmarked) [Citronellol]: in series [1], the “Divided. Initial Retention” value is 100% and the “Undivided. Initial Retention” value was found to be 53%. Also, the “Loss Factor FL” value in series [2] (setting [4]) turned out to be 761 Pa ppm. Moreover, in series [3], the “Retention With coating” value is on record as 71%, the “Retention Without coating” value came to 18% and the Retention free perfume turned out to be 26%.

Regarding `O=C(OC1CCCCC1)c1ccccc1O` [Cyclohexyl salicylate], in series [1], the “Divided. Initial Retention” value was 94% and the “Undivided. Initial Retention” value was determined as 91%. The “Loss Factor FL” value in series [2] (setting [4]) came out at 1.37 Pa ppm.

Take `CC(=O)CCC1=C(C)CCCC1(C)C` [Dihydro beta ionone]: in series [1], the “Divided. Initial Retention” value stood at 84% and the “Undivided. Initial Retention” value worked out at 56%. Also, the “Loss Factor FL” value in series [2] was determined as 84 Pa ppm.

In the case of `CC(=O)/C(C)=C/C1C(C)=CCCC1(C)C` (centres unmarked) [Gamma methyl ionone], in series [3], the “Retention With coating” value is recorded as 91%, the “Retention Without coating” value was determined as 51% and the Retention free perfume came out at 49%.

On to `CCCCCCOC(=O)c1ccccc1O` [Hexyl salicylate], for which, in series [3], the “Retention With coating” value came out at 94%, the “Retention Without coating” value was 47% and the Retention free perfume is given as 18%.

Consider `CC(C=O)Cc1ccc(C(C)(C)C)cc1` (centres unmarked) [Lilial], for which, in series [3], the “Retention With coating” value stood at 65%, the “Retention Without coating” value came out at 36% and the Retention free perfume is given as 4%.

For the compound `C=C(C)[C@H]1CC=C(C)CC1` [Limonene], in series [3], the “Retention With coating” value worked out at 41%, the “Retention Without coating” value turned out to be 18% and the Retention free perfume stood at 0%.

For the compound `C=CC(C)(CCC=C(C)C)OC(C)=O` (centres unmarked) [Linalyl acetate], in series [3], the “Retention With coating” value is listed as 80%, the “Retention Without coating” value was determined as 39% and the Retention free perfume was determined as 8%.

For `OCCc1ccccc1` [Phenyl ethyl alcohol], in series [3], the “Retention With coating” value is 72%, the “Retention Without coating” value worked out at 36% and the Retention free perfume is on record as 25%.

`CCC(C)(O)CCCC(C)C` (centres unmarked) [Tetrahydro linalool]: in series [1], the “Divided. Initial Retention” value is given as 97% and the “Undivided. Initial Retention” value is 47%. Further, the “Loss Factor FL” value in series [2] (setting [4]) is 3466 Pa ppm. Also, in series [3], the “Retention With coating” value worked out at 84%, the “Retention Without coating” value amounted to 50% and the Retention free perfume is given as 33%.
